In PMC10500570 (ACS Omega, 2023):

Columns and labels:
SH-SY5Y cells = assay: SRB cytotoxicity assay; type: cell-based; conditions: Homo sapiens, 48 h, read-out: GI50 ± SD
Human recombinant AChE = Human recombinant AChE (Homo sapiens, UniProt P22303); assay: AChE inhibition, Ellman assay; type: biochemical
BChE from equine serum = BChE from equine serum (Equus caballus, UniProt P81908); assay: BChE inhibition, Ellman assay; type: biochemical
Chain of BChE from equine serum (P81908 whole entry): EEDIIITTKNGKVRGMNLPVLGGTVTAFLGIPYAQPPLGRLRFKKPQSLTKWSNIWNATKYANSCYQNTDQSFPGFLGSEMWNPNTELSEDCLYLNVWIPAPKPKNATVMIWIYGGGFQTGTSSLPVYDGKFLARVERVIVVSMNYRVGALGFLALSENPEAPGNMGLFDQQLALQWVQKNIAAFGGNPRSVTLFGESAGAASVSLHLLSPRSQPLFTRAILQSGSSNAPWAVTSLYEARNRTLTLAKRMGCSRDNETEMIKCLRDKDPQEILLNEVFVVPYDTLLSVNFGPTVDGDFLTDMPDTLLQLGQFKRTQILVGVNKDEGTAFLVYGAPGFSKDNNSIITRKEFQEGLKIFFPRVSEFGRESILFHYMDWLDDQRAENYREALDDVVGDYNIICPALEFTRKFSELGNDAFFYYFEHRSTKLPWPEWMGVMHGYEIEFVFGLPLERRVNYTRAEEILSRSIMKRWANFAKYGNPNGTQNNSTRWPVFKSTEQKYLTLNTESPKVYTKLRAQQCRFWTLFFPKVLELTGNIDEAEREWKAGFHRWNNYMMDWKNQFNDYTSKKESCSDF

Chain of Human recombinant AChE (P22303 32-614): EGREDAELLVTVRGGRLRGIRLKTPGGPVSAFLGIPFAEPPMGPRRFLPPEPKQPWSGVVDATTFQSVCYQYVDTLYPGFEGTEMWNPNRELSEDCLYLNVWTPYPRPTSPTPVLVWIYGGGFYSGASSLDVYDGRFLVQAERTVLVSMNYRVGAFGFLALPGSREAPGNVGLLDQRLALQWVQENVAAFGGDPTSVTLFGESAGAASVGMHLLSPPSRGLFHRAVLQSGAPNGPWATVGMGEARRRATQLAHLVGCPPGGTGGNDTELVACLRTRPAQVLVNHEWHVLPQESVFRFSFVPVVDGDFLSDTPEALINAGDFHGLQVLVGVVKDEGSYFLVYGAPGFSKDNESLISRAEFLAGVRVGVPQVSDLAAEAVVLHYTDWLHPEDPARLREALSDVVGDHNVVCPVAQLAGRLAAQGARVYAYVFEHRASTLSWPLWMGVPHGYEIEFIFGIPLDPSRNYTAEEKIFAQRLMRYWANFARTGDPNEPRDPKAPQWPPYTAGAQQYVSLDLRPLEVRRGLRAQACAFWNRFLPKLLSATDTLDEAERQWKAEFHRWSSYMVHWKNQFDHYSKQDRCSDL

Row | SMILES | GI50 (SH-SY5Y cells) | IC50 (Human recombinant AChE) | IC50 (BChE from equine serum) | SI (selectivity index) (Human recombinant AChE; Selectivity index = BChE IC50/AChE IC50)
1 | O=C1C=C(OCCCCCCn2cc(CNc3ccc4ncc(-c5ccccc5)nc4c3)nn2)C(=O)c2ccccc21 [Compound 7c] | > 100 µM | > 100 µM | > 100 µM | 
2 | O=C1C=C(OCCCCCCCCn2cc(CNc3ccc4ncc(-c5ccccc5)nc4c3)nn2)C(=O)c2ccccc21 [Compound 7d] | > 100 µM | > 100 µM | 4.4 ± 0.4 µM | <0.044
